We go through three compounds from publication PMC10610379, “Epidrugs as Promising Tools to Eliminate Plasmodium falciparum Artemisinin-Resistant and Quiescent Parasites” (Pharmaceutics, 2023).

“And” between values parts separate entries of the source, which are not always exact repeats. Identical values can stand only once. Like-named read-outs stand apart in the source and are kept apart here. A value given as a limit tells only on which side of the number the result lay.

Data set [1] has as its system NFF. The settings on record: cited from earlier work.
Data set [2] relates to Plasmodium falciparum F32-ART (artemisinin-resistant strain). Description: Standard chemosensitivity assay (SYBR Green I), F32-ART. It is filed as cell-based. The settings on record: for IC50: F32-ART, 48 h incubation, SYBR Green I, mean ± SEM of 3 experiments (* mean of 2), read-out: Antiplasmodial Activity: IC50, F32-ART; for Selectivity Index CC50/IC50: ratio cytotoxicity (mammalian cell type of the CC50)/antiplasmodial activity on F32-ART. On the procedure: (§1) They differ by eight mutations in seven genes (PF3D7_0110400, PF3D7_1343700, PF3D7_0213400, PF3D7_1115700, PF3D7_1302100, PF3D7_1459600, PF3D7_1464500) among them the M476I mutation on the kelch13 gene. F32-ART and F32-TEM strains have RSA^0–3 h values up to 12% and less than 0.1%, respectively. […] Both strains were cultured, in the same conditions, according to the Trager and Jensen protocol with modifications. Briefly, parasites were cultivated in RPMI-1640 medium (Biowest) at 2% hematocrit in human red blood cells and 5% human serum (EFS, French Blood Bank) under 5% CO2 in a humid atmosphere at 37 °C.
(§2) The antimalarial activities of the compounds were evaluated on both strains. […] Antimalarial activities were determined with the SYBR Green I method. Each drug concentration was tested in triplicate. The parasites were incubated with the drugs for 48 h. Plates were read on a BioTek FLX800 Microplate Fluorescence Reader (Bio-Tek instruments, Winooski, VT, USA) (λexcitation = 485 nm, λemission = 528 nm). Control parasite culture (i.e., RPMI with 0.5% DMSO) was referred to as 100% growth. IC50 and IC90 values were determined using GraphPad Prism version 7.05 (GraphPad Software, San Diego, CA, USA). Results were the mean of 3 independent experiments. When it is relevant, statistical significance between results obtained with both parasite strains was determined by a Mann–Whitney test using GraphPad Prism version 7.05.

The subject of data set [3] is Plasmodium falciparum F32-TEM (artemisinin-sensitive twin line). Description: Standard chemosensitivity assay (SYBR Green I), F32-TEM. The settings on record: Plasmodium falciparum; F32-TEM, 48 h incubation, SYBR Green I; mean ± SEM of 3 experiments (* mean of 2); read-out: Antiplasmodial Activity: IC50, F32-TEM. It is filed as cell-based. The method, then:
as §1, §2

Data set [4] concerns ART-resistant parasites F32-ART at the quiescent stage. Description: Quiescent-stage Survival Assay (QSA), 48-h exposure. It is filed as cell-based, Plasmodium falciparum. On the procedure: The sensitivity of the ART-resistant parasites F32-ART at the quiescent stage towards the different molecules was determined using the QSA (Quiescent-stage Survival Assay), as previously described.
Epidrugs were tested at their IC90 values. In the present study, quiescence was induced using 3 µM of ART or 700 nM of DHA [28]. Thus, D-sorbitol synchronized ring-stage parasites at 3% parasitemia and 2% hematocrit (5 mL of culture per well in 6-well plates) were first exposed to 6 h of ART or DHA to induce quiescence and then to 48 h of the combination “ART or DHA + compound to be tested”. The combinations “ART 6 h/ART 48 h” or “DHA 6 h/DHA 48 h” were used as controls. The compounds were evaluated, in parallel, on proliferating parasites, i.e., without any pre-treatment. After drug exposure, parasite cultures were washed with 40 mL of RPMI-1640 medium and cultured in drug-free conditions supplemented with 10% human serum in new wells. The parasitemia for each condition was then microscopically monitored every 2 days. Culture media were renewed twice a week and 25 µL of fresh red blood cells were added once a week. Obtained data were used to perform Kaplan–Meier survival analyses considering censored data. The outcome was defined as the day when parasite cultures reached the initial parasitemia (3%) and data were considered as censored if no parasite recrudescence was observed during the 30-day experiment timeframe. When relevant, statistical significance between results obtained for the conditions “ART/ART” and “ART/ART + compound to be tested” or “DHA/DHA” and “DHA/DHA + compound to be tested” was determined by a Log Rank (Mantel Cox) test using GraphPad Prism version 7.05. For the best compounds targeting histones, in order to compare western blots data, modified QSAs were carried out by comparing “DHA 6 h/DHA 24 h” versus “DHA 6 h/DHA + compound to be tested 24 h”.

The test system is the same in data set [5]. Description: Modified QSA, 24-h exposure. It is filed as cell-based, Plasmodium falciparum. The settings on record: DHA 700 nM, compound at its IC90, 24-h exposure. On the procedure: Epidrugs were tested at their IC90 values. In the present study, quiescence was induced using 3 µM of ART or 700 nM of DHA [28]. Thus, D-sorbitol synchronized ring-stage parasites at 3% parasitemia and 2% hematocrit (5 mL of culture per well in 6-well plates) were first exposed to 6 h of ART or DHA to induce quiescence and then to 48 h of the combination “ART or DHA + compound to be tested”. The combinations “ART 6 h/ART 48 h” or “DHA 6 h/DHA 48 h” were used as controls. The compounds were evaluated, in parallel, on proliferating parasites, i.e., without any pre-treatment. […] The parasitemia for each condition was then microscopically monitored every 2 days. […] When relevant, statistical significance between results obtained for the conditions “ART/ART” and “ART/ART + compound to be tested” or “DHA/DHA” and “DHA/DHA + compound to be tested” was determined by a Log Rank (Mantel Cox) test using GraphPad Prism version 7.05. […]
To collect enough material for immunoblotting, we performed the analysis after a 24-h exposure of DHA-treated parasites to the epidrug and in parallel evaluated the activity of the three epidrugs in a modified QSA, in which quiescent parasites were exposed to the drug to be tested for 24 instead of 48 h, as in our previous experiments (Figure 2).

Data set [6] relates to H3K4me1. Briefly: Immunoblotting, histone mark abundance in F32-ART parasites. The class given is cell-based, Plasmodium falciparum. The settings on record: 270 nM. The method, then:
(§3) Abundance of methylated and acetylated histone was determined in parasite cultures in different conditions: “not-treated”, “DHA 24 h”, “DHA 6 h/DHA 24 h” and “DHA 6 h/DHA + compound to be tested 24 h”. At the end of the treatments, parasite cultures were washed in RPMI-1640 and then twice in PBS 1× before red blood cell lysis with 0.075% saponin (Sigma-Aldrich) in PBS. Parasite ghosts were washed 3 times in PBS before incubating the ghosts with E1A lysis buffer (50 mM Hepes pH 7.5; 250 mM NaCl; 5 mM EDTA; 0.1% Triton X-100, 1 mM DTT, 0.2 mM PMSF supplemented with complete Mini EDTA-free protease inhibitor cocktail (Roche®, Basel, Switzerland)) for 15 min. Ghosts were then sonicated for 3 × 15s ON/OFF cycles to shear parasite membranes. Debris were pelleted by centrifuging for 15 min at 13,800× g and 4 °C, and supernatants (containing parasitic proteins) were then collected. Protein concentrations were determined using BCA assay (Bio-Rad, Hercules, CA, USA) according to the manufacturer’s instructions. For each sample, 10 µg of proteins were mixed with 4× sample buffer (10 mL 50% Glycerol, 5 mL 0.5 M Tris HCl pH 6.8, 4 mL 20% SDS, 0.02% Bromophenol blue for a total solution volume of 20 mL) and 100 mM DTT and then separated on 15% SDS-PAGE gels in Laemmli running buffer. Gels were then wet-transferred O/N at 20 V onto PVDF membranes. Membranes were blocked in TBST for 1 h at room temperature. Bottom parts were then probed with histone antibodies while upper parts were probed with PFALDOLASE antibody (Abcam, ab38905, Cambridge, UK) at 1:20,000 dilution. The following primary antibodies were used: anti-H3K4me1 (Abcam, ab8895); anti-H3K4me2 (Abcam, ab35356); anti-H3K9me2 (Abcam, ab1220); anti-H3K9me3 (Millipore, 07-442, Burlington, MA, USA); anti-tetra-acetyl H4 (Millipore, 06-866); anti-H4K8Ac (Millipore, 07-328); anti-H4K20me3 (Abcam, ab9053); anti-H3K4me3 (Diagenode) and anti-H3K9Ac (Millipore, 07-352) at 1:10,000. The following secondary antibodies were used: anti-rabbit IgG-Peroxidase produced in goat (Sigma-Aldrich) or anti-mouse IgG-Peroxidase (Sigma-Aldrich); at 1:20,000 dilutions. Blots were developed using ECL Prime Western Blotting (GE Healthcare, Chicago, IL, USA) and read on a Chemidoc touch imaging software. Densitometry analysis was performed by using ImageLab software from Bio-Rad. To determine if variations in histone abundances were statistically significant, immunoblotting experiments were performed on 3 biological replicates and each run was performed twice.

Data set [7] relates to H3K4me2. Described as above. It is filed as cell-based, Plasmodium falciparum. The settings on record: 270 nM. On the procedure:
as §3

The subject of data set [8] is H3K4me3. Described as above. The settings on record: 270 nM. It is filed as cell-based, Plasmodium falciparum. On the procedure: as §3
Data set [9] relates to H4K20me3. The description is as above. It is filed as cell-based, Plasmodium falciparum. Particulars: 270 nM. The method, then: as §3
The test system of data set [10] is HFF. Particulars: read-out: Cytotoxicity: CC50 (HFF), data from literature ref 48; cited from earlier work.
Setting [11] is: 24 h, F32-ART ring stage proliferating, 3 replicates (Fig 3C).
[12] abbreviates: DHA 6 h/DHA + TM2-115 24 h, F32-ART DHA-treated parasites, 3 replicates (Fig 3G).

Consider `O=C(CCCCCCC(=O)Nc1ccccc1)NO` [SAHA], for which, in data set [1] (read-out: Cytotoxicity: CC50 (NFF), data from literature ref 43), the CC50 was 5500 nM.

`COc1cc2c(NC3CCN(C)CC3)nc(N3CCCN(C)CC3)nc2cc1OCc1ccccc1` [TM2-115] yielded an IC90 in [2] (Plasmodium falciparum, F32, concentration used in QSA and immunoblotting) of 270 nM. The results for the IC50 in data set [2] (Plasmodium falciparum) and in [3] were 128 ± 30 nM and 104 ± 32 nM, respectively. In [2], the “Selectivity Index CC50/IC50” value turned out to be 45. In addition, in data set [4] (quiescence induced with ART 3 µM 6 h, then 48 h ART + compound at its IC90), the “Delay in parasite recrudescence time (difference between median recrudescence times), ART/ART + compound vs ART/ART” value is reported as 9.5 days. In addition, in data set [4] (quiescence induced with DHA 700 nM 6 h, then 48 h DHA + compound at its IC90), the “Delay in recrudescence time, DHA/DHA + compound vs DHA/DHA” value is listed as not below 6 days. Further, in [5], the “Recrudescence in modified QSA, DHA 6 h/DHA + compound 24 h vs DHA 6 h/DHA 24 h” value is recorded as “clearly impaired quiescent parasite survival”. In data set [6] (setting [11]), the “Fold change of H3K4me1 abundance, TM2-115 vs DMSO” value is 1.37 and 0.47 and 2.10. Also, the “Fold change of H3K4me1 abundance, TM2-115, quiescent stage” value in data set [6] (setting [12]) was “did not induce a quantifiable change and 0.51 and 1.07 and 0.76”. Also, the “Fold change of H3K4me2 abundance, TM2-115 vs DMSO” value in data set [7] (setting [11]) is 1.31 and 1.11 and 0.85. In addition, the “Fold change of H3K4me2 abundance, TM2-115, quiescent stage” value in data set [7] (setting [12]) is “did not induce a quantifiable change and 1.00 and 0.95 and 0.47”. Moreover, in data set [8] (setting [11]), the “Fold change of H3K4me3 abundance, TM2-115 vs DMSO” value is 1.39 and 1.69 and 1.12. Also, the “Fold change of H3K4me3 abundance, TM2-115, quiescent stage” value in data set [8] (setting [12]) was “did not induce a quantifiable change and 0.81 and 0.67 and 1.16”. Also, in data set [9] (setting [11]), the “Fold change of H4K20me3 abundance, TM2-115 vs DMSO” value is “inhibited H4K20 methylation and 0.82 and 0.71 and 0.76”. In addition, in data set [9] (setting [12]), the “Fold change of H4K20me3 abundance, TM2-115, quiescent stage” value was “did not induce a quantifiable change and 1.10 and 1.20 and 0.97”. The CC50 in data set [10] was 5.7 µM.

In the case of `CC(/C=C/C(=O)NO)=C\[C@@H](C)C(=O)c1ccc(N(C)C)cc1` [Trichostatin A], the IC50 in data set [2] (Plasmodium falciparum) was 29 ± 12 nM; in data set [3] it was 30 ± 3 nM. Besides, the “Selectivity Index CC50/IC50” value in [2] is recorded as 7. Moreover, in data set [1] (read-out: Cytotoxicity: CC50 (NFF), data from literature ref 40), the CC50 was 200 nM.
